In patent US9937178B2, “Methods of identifying and using MDM2 inhibitors” (DUKE UNIVERSITY, priority 2011, dated 2018):

Key:
[1] = tested on: rBT474, rSKBR3, rAU565 and rSUM190 cells; experiment: Apoptotic cell death (Annexin V FACS) in lapatinib-resistant lines; type: cell-based; conditions: all four resistant lines
Method: (§1) FIG. 2 is a set of graphs showing the percentage of cells undergoing apoptotic cell death for each of the four cell lines and their matched resistant cell line in the presence or absence of lapatinib and/or an MDM2 inhibitor, MI-219, as measured by FACS analysis for Annexin V. Results are expressed as mean +/− SEM of Annexin V positive cells.
(§2) BT474, SKBR3, and AU565 cells were obtained from ATCC. SUM190 cells were obtained from Asterand, Inc. All cell lines were cultured in RPMI medium containing 10% fetal bovine serum (FBS). Lapatinib-resistant cells (rBT474, rSKBR3, rAU565, and rSUM190) were established as previously described^14. Cobleigh, et al. J. Clin. Oncol. 17, 2639-2648 (1999). Lapatinib-resistant cells were grown in the presence of 1 μM lapatinib unless otherwise stated.

HSP90β = HSP90β phosphorylation (Ser226, Ser255); type: cell-based
Method: FIG. 7C is an autoradiograph of ^32P and an immunoblot showing the percentage of the protein phosphorylated. In the presence of [γ-^32P]ATP, recombinant His-tagged HSP90β proteins (wild type and the indicated mutants) on nickel beads were incubated with the HSP90β-targeted kinase casein kinase 2. FIG. 7D is an autoradiograph and corresponding immunoblot showing BT474 or rBT474 cells after being cultured in the absence or presence of 1 μM lapatinib for 24 hours in the presence of z-VAD. Recombinant His-tagged HSP90β protein on nickel beads was incubated with the cell lysates in the presence of [γ-^32P]ATP. FIG. 7E is an immunoblot for phospho-Hsp90β (Ser226) and total HSP90β at various time points. BT474 or rBT474 cells were treated with 1 μM lapatinib for the indicated amount of time. FIG. 7F is a set of graphs showing FACS analysis for the phosphorylation status of Hsp90β (Ser255). BT474 or rBT474 cells cultured in the presence of 1 μM lapatinib for 24 hours were fixed with formaldehyde and incubated with phospho-Hsp90β (Ser255) antibody followed by an Alexa488-conjugated secondary antibody.

Akt = experiment: Immunoblot of phospho-AKT in lapatinib-treated cells; type: cell-based; conditions: sensitive and resistant cells, 1 μM lapatinib, 50 μM z-VAD
Mcl-1 [2] = experiment: 35[S]-Mcl-1 degradation in cell-free lysates; type: cell-based; conditions: resistant cell lysates, only from cells treated with lapatinib (rBT474)
Method: (§3) FIG. 3 is a set of photographs showing that Mcl-1 is stabilized in lapatinib-resistant cells. […] FIG. 3B is a set of immunoblots showing the levels of HER2 and phospho-HER2 in untreated cells and cells treated with lapatinib. Cells were treated with or without lapatinib (1 μM) for 24 hours in the presence of the caspase inhibitor z-VAD (50 μM). The cells were harvested and cell lysates were immunoblotted using antibodies against phospho-HER2 (Y877) and total HER2. FIG. 3C is an immunoblot for phospho-AKT (T308) and total AKT. BT474 and rBT474 cells were treated with 1 μM lapatinib in the presence of 50 μM z-VAD. At the indicated time points, the cells were harvested and immunoblotted. FIG. 3D is an immunoblot for phospho-Erl1/2(T202/Y204) and total Erk1/2. BT474 and rBT474 cells were treated with 1 μM lapatinib in the presence of 50 μM z-VAD. At the indicated time points, the cells were harvested and immunoblotted. […] FIG. 3F is an autoradiograph showing the ^35[S] radioactivity in lysates containing ^35[S]-Mcl-1 at the indicated time points. ^35[S]-labeled Mcl-1 protein was incubated in cell-free lysates prepared from BT474 and rBT474 cells (top) or SKBR3 and rSKBR3 cells (bottom). […] FLAG-Mcl-1 was retrieved by immunoprecipitation using anti-flag agarose, and Mcl-1 ubiquitylation was analyzed by immunoblotting for HA (*non-specific band, **IgG heavy chain). […]

Erk1/2 = experiment: Immunoblot of phospho-Erk1/2 in lapatinib-treated cells; type: cell-based; conditions: sensitive and resistant cells, 1 μM lapatinib, 50 μM z-VAD
rAU565-derived tumor = experiment: rAU565 mammary fat pad xenograft; conditions: 100 mg/kg each drug, twice daily by oral gavage
Method: (§4) Six week-old female nude mice were purchased from NCI Frederic. Xenograft tumors were produced by injection into the mammary fat pad with cells (10×10^6). Tumor volumes were calculated every 3-4 days based on caliper measurements of the short (a) and long (b) tumor diameters (volume=a2b/2). […] Mice were dosed orally with vehicle alone, lapatinib (100 mg/kg), Nutlin-3 (100 mg/kg), or combination of both twice daily by gavage.

rBT474 xenografts = experiment: rBT474 mammary fat pad xenograft; conditions: 100 mg/kg each drug, twice daily by oral gavage
Method: (§5) Forty-eight hours after siRNA transfection, cells were treated with 1 μM lapatinib for 48 hours, and cells were harvested and subjected to Annexin V staining. The percentage of Annexin V-positive cells was analyzed by FACS. Results are expressed as a mean percentage±SEM and analyzed by t-test (*P<0.05). […] The oral administration of lapatinib (100 mg/kg, twice daily by oral gavage) began when the average tumor volume surpassed 300 mm^3. Results are expressed as a mean percentage±SEM. […] After 36 hours, cells were harvested and immunoblotted. […] BT474 and rBT474 cells were injected into the mammary fad pad of each mouse. When tumors developed to a size of 200 mm^3, the mice were randomly assigned to receive vehicle, lapatinib (100 mg/kg), Nutlin-3 (100 mg/kg), or Lapatinib+Nutlin-3 and treated twice daily by oral gavage. Results are expressed as a mean percentage±SEM. […] Percentage of apoptotic cell death was measured by FACS analysis using Annexin V. Results are expressed as a mean percentage±SEM of Annexin V-positive cells (*P<0.05 by t-test).
(§6) Six week-old female nude mice were purchased from NCI Frederic. Xenograft tumors were produced by injection into the mammary fat pad with cells (10×10^6). Tumor volumes were calculated every 3-4 days based on caliper measurements of the short (a) and long (b) tumor diameters (volume=a2b/2). […]

BT474 xenografts = experiment: BT474 mammary fat pad xenograft; conditions: 100 mg/kg each drug, twice daily by oral gavage
Method: as §5, §6

MDM2 = experiment: Immunoblot of MDM2 protein levels; type: cell-based; conditions: 1 μM lapatinib
Method: Cells treated with 1 μM lapatinib were harvested at various time points and immunoblotted. […] BT474 and rBT474 cells were transiently transfected with HA-tagged Huwe1 and subsequently treated with 50 μg/ml cycloheximide (CHX) and 1 μM lapatinib. […] Immunoprecipitation was carried out using H1299 cell lysates and anti-Huwe1 antibody (or control IgG). […] BT474 cells were transfected with HA-tagged Huwe1 encoding the full-length protein, residues 1-2474, or residues 2473-4374. […] BT474 cells were transfected with increasing amounts of MDM2 and harvested after 48 hours. […] SUM190 cells were transfected with Scrambled or MDM2-specific siRNA (100 nM) and harvested after 72 hours. […] Ubiquitylation of Huwe1 was reconstituted in vitro by incubating recombinant Huwe1 protein (Huwe1^1-2474) with E1, UbcH5 (E2), ubiquitin (Ub), and recombinant MDM2 protein in reaction buffer at 37° C. for 3 hours. […] Twenty-four hours later, the cells were replated and further transfected with HA-tagged Huwe1 (wild type). Forty-eight hours after siRNA transfection, the cells were treated with 1 μM lapatinib. After 24 hours of lapatinib treatment, 50 μg/ml cycloheximide (CHX) was added to the culture medium and cells were harvested at various time points for immunoblotting.

[3] = tested on: caspase-9 / caspase-3 activation; experiment: Cytochrome c-induced caspase activation in cell lysates; type: cell-based; conditions: lysates of resistant cells cultured in the presence of lapatinib
Method: FIG. 7A is an immunoblot for caspase-9 (cleaved and non-cleaved) and cleaved caspase-3 (C9 and C3, respectively) showing rBT474 cells cultured in the absence or presence of 1 μM lapatinib for one week, as compared to BT474 cells which were maintained without lapatinib. Cytosolic lysates prepared from BT474 or rBT474 were incubated with 1 mM dATP and various amounts of cytochrome c (CC). FIG. 7B is a set of graphs showing Caspase 3 activity in the indicated cell lysates over time. Caspase-3 activity was assayed by measuring cleavage of DEVD-pNA following incubation of the cell lysates with 1 mM dATP and various concentrations of cytochrome c.
Cell lysates for apoptotic assays were prepared as described previously using buffer A (20 mM HEPES [pH 7.4], 10 mM KCl, 1.5 mM MgCl2, 1 mM EDTA, 1 mM EGTA, 1 mM dithiothreitol, 1 mM phenylmethylsulfonyl fluoride, 5 μg/ml leupeptin, and 5 μg/ml aprotinin). […]
Colorimetric caspase assays were performed by incubating cell lysate (3 μl) in 90 μl DEVDase buffer (50 mM HEPES [pH 7.5], 100 mMNaCl, 0.1% CHAPS, 10 mMDTT, 1 mMEDTA, 10% glycerol) containing the peptide substrate, Ac-DEVD-pNA (200 mM final concentration; BIOMOL Research Labs). […] Absorbance of the colorimetric product was measured at 405 nm using a Bio-Rad microplate reader.

AU565-derived tumor = experiment: AU565 mammary fat pad xenograft; type: in vivo, mouse; conditions: 100 mg/kg each drug, twice daily by oral gavage
Method: as §4

[4] = tested on: mitochondrial cytochrome c release; experiment: Western blot for cytochrome c in cytosolic lysates lacking mitochondria; conditions: 1 μM lapatinib, 24 hours
CAS-MDM2 interaction = biological target: T1, CAS-MDM2 interaction (Homo sapiens, UniProt Q00987); experiment: CAS-MDM2 co-immunoprecipitation; type: cell-based; conditions: 1 μM lapatinib, 24 hours
T1 construct: association of endogenous MDM2 was analyzed by immunoblotting; expressed in transfected cells; host or cells: BT474 and rBT474 cells transfected with FLAG-CAS; MDM2 endogenous
Method: BT474 and rBT474 (left) or AU565 and rAU565 cells (right) cultured in the absence of lapatinib for one week were treated with 1 μM lapatinib and the cells were harvested at various time points. FIG. 11B is an immmunoblot for CAS and Actin. rBT474 cells were maintained in the presence of 1 M lapatinib and the cells were harvested at various time points following removal of lapatinib. […] BT474 and rBT474 cells were transiently transfected with FLAG-tagged CAS and subsequently treated with 50 μg/ml cycloheximide (CHX) and 1 μM lapatinib and the cells were harvested at various time points. […] BT474 and rBT474 (left) or SKBR3 and rSKBR3 cells (right) were co-transfected with FLAG-CAS and HA-Ub. Cells were treated with 1 μM lapatinib for 24 hours in the presence of z-VAD. […] FIG. 11E is an immunoblot for FLAG-tagged proteins retrieved by immunoprecipitation and association with MDM2. […] FIG. 11F is an immunoblot for CAs after immunoprecipitation for FLAG. […] Cells were treated with 10 μM MG132 for 3 hours. […] FIG. 11I is an immunoblot for MDM2 or CAs after immunoprecipitation with FLAG. BT474 and rBT474 cells were transfected with FLAG-CAS. Cells were treated with 1 μM lapatinib for 24 hours in the presence of z-VAD. After treatment with 10 μM MG132 for 5 hours, FLAG-CAS was retrieved by immunoprecipitation and association of endogenous MDM2 was analyzed by immunoblotting. […]

HER2 = HER2 (Homo sapiens, UniProt P04626); experiment: Immunoblot of phospho-HER2 in lapatinib-treated cells; type: cell-based; conditions: 1 μM lapatinib, 24 hours, z-VAD 50 μM; even in resistant cells
Mcl-1 [5] = experiment: Mcl-1 ubiquitylation (FLAG-Mcl-1 / HA-Ub immunoprecipitation); type: cell-based; conditions: 1 μM lapatinib, 24 hours
Method: as §3

[6] = tested on: BT474, SKBR3, AU565 and SUM190 cells; experiment: Apoptotic cell death (Annexin V FACS) in parental lapatinib-sensitive lines; type: cell-based; conditions: all four parental sensitive cell lines
Method: as §1, §2

T1 sequence (Q00987 whole entry): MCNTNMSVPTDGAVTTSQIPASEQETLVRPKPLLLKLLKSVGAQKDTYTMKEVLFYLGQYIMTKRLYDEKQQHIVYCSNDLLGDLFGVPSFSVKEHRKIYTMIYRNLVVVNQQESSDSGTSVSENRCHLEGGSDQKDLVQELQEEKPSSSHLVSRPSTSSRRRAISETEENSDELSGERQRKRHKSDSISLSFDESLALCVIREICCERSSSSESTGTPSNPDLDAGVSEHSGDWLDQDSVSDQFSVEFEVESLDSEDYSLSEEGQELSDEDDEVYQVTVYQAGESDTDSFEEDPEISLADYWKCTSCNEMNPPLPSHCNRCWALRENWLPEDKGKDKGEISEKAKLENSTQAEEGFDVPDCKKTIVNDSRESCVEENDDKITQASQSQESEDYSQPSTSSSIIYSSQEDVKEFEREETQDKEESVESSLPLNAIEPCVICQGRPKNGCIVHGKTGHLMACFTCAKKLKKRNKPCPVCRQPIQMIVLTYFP
Chain of HER2 (P04626 23-1255): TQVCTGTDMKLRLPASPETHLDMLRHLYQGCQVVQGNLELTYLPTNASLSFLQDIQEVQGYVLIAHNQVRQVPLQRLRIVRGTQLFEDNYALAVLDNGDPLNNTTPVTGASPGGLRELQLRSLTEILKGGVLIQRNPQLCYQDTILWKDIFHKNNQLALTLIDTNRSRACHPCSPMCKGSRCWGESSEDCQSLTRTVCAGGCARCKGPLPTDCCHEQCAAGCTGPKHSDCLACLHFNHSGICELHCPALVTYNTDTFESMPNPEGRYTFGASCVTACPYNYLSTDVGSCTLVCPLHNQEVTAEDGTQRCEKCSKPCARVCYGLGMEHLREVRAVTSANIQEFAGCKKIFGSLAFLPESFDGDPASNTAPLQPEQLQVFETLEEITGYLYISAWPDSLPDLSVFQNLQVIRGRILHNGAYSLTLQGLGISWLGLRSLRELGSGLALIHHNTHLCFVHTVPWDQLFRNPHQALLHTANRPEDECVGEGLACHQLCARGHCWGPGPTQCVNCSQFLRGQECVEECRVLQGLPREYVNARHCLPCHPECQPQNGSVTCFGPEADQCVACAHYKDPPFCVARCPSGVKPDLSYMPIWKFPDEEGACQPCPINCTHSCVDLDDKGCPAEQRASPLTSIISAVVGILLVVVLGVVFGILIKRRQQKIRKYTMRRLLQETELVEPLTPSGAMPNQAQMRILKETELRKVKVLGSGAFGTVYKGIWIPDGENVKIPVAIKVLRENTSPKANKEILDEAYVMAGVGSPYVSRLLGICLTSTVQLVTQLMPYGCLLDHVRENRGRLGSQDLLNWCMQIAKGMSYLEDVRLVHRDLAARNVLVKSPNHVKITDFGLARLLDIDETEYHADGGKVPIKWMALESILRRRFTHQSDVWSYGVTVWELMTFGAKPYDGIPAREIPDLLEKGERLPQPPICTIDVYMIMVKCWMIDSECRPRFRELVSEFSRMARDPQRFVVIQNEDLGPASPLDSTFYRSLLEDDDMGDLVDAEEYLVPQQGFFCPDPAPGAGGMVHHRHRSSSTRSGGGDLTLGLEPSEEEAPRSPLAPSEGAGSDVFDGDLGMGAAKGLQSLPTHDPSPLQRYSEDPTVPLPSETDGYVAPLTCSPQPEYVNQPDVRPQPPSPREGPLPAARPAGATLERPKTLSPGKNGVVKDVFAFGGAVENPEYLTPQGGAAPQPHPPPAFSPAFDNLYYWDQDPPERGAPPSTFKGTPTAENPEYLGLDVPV

Which “cell death in response to lapatinib treatment” value [1] does the source give for CS(=O)(=O)CCNCc1ccc(-c2ccc3ncnc(Nc4ccc(OCc5cccc(F)c5)c(Cl)c4)c3c2)o1 [lapatinib] here?
Its value is “did not die”.

What about the “HSP90β phosphorylation at both Ser226 and Ser255” value (HSP90β; lapatinib-treated resistant cells compared to sensitive cells) of the same compound?
Its value is “markedly decreased”.

And the HSP90β phosphorylation (HSP90β; normal BT474 cells, 1 μM lapatinib)?
Its HSP90β phosphorylation is “did not prevent”.

And the “phosphorylation of Akt” value (Akt)?
The value was “attenuated”.

And the Mcl-1 protein half-life (Mcl-1 [2])?
The Mcl-1 protein half-life was “prolonged”.

And the “phosphorylation of Erk1/2” value (Erk1/2)?
Its value is “attenuated”.

And the rAU565-derived tumor growth (rAU565-derived tumor)?
Its rAU565-derived tumor growth is “not rAU565-derived tumor growth”.

And the rBT474-derived tumor growth (rBT474 xenografts)?
The rBT474-derived tumor growth was “Neither lapatinib nor Nutlin-3 inhibited”.

What about the “growth of BT474-derived tumors” value (BT474 xenografts) of the same compound?
The value was “significantly suppressed”.

What about the MDM2 levels (MDM2; parental cells) of the same compound?
The MDM2 levels was “rapidly decreased”.

What about the MDM2 levels (MDM2; resistant cells) of the same compound?
The MDM2 levels was “maintained”.

And the “cytochrome c-induced caspase activation” value [3]?
The value was “strong defects in caspase activation”.

And the AU565-derived tumor growth (AU565-derived tumor)?
The AU565-derived tumor growth was “substantially inhibited”.

What about the “mitochondrial cytochrome c release” value ([4]; parental BT474 cells) of the same compound?
The value was “induced mitochondrial cytochrome c release in parental BT474 cells”.

What about the “mitochondrial cytochrome c release” value ([4]; rBT474 cells) of the same compound?
The value was “not rBT474 cells”.

What about the CAS-MDM2 interaction (CAS-MDM2 interaction; BT474 cells) of the same compound?
The CAS-MDM2 interaction was “decreased”.

What about the CAS-MDM2 interaction (CAS-MDM2 interaction; rBT474 cells) of the same compound?
The CAS-MDM2 interaction was “enhanced”.

What about the HER2 tyrosine autophosphorylation (HER2) of the same compound?
The HER2 tyrosine autophosphorylation was “inhibited”.

What about the Mcl-1 ubiquitylation (Mcl-1 [5]; SKBR3 cells) of the same compound?
The Mcl-1 ubiquitylation was “enhanced”.

And the Mcl-1 ubiquitylation (Mcl-1 [5]; rSKBR3 cells)?
The Mcl-1 ubiquitylation was “diminished”.

What about the “apoptotic cell death in response to lapatinib” value [6] of the same compound?
The value was “died from apoptosis”.
